Test results reported in patent EP4763221A1, “COMPOUND AND ANTIBODY-DRUG CONJUGATE COMPRISING SAME” (priority 2023, dated 2025).

Experiments:
MDA-MB-453 cells [1] = test: FACS assay for internalization activity in MDA-MB-453 cells; assay type: cell-based; settings: 100 nM, 37 °C for 1 h, 3 h and 5 h, compared to isotype control IgG-Dxd
Experimental: MDA-MB-453 cells (purchased from Cobioer Biosciences Co., Ltd., Cat. No. CBP60386) were collected, counted, and determined for cell viability. The cell suspension was added to a 96-well low-adsorption plate at 1 × 10^5 cells/sample and centrifuged at 750× g for 5 min. The supernatant was discarded. 100 µL of the experimental drug (at a working concentration of 100 nM) was added, with an isotype control (IgG-Dxd, at a working concentration of 100 nM) designed in parallel. The mixture was mixed uniformly and incubated in an incubator at 37 °C for 1 h, 3 h, and 5 h. After the incubation was completed, 1% PBSA (PBS + 1% BSA) was added, and the mixture was centrifuged at 750× g for 5 min. The supernatant was discarded, and the cells were washed twice with 1% PBSA. 100 µL of patritumab (at a working concentration of 100 nM) was added, and the mixture was incubated on ice for 30 min. 1% PBSA (PBS + 1% BSA) was added, and the mixture was centrifuged at 750× g for 5 min. The supernatant was discarded, and the cells were further washed twice with 1% PBSA. 100 µL of 300-fold diluted fluorescent antibody Mouse Anti-Human IgG Fc-Alexa Fluor 647 (Southern Biotech, Cat. No. 9040-31) was added, and the cell pellet was resuspended and incubated on ice for 30 min in the dark. 1% PBSA (PBS + 1% BSA) was added, and the mixture was centrifuged at 1000× g for 5 min. […]

NCI-H1781 cells = test: Specific cell killing activity (CellTiter-Glo); assay type: cell-based; settings: medium with 10% human ab serum, 6 days
Experimental: NCI-H1781 cells (Cobioer Biosciences Co., Ltd., Cat. No. CBP60116) were collected, and centrifuged at 1000× g for 5 min, and then the supernatant was removed. The cells were resuspended and counted, and the viability was determined. The cells were diluted, and NCI-H1781 (2500 cells/100 µL) was added to each well of a black-bottom 96-well plate. The plate was incubated in an incubator at 37 °C with 5% CO2 overnight. The experimental drug was diluted with a medium (10% human ab serum), and 100 µL of the experimental drug was added to each well according to the experimental design. A blank control was designed, with three replicate wells set for each group. The plate was incubated in an incubator at 37 °C with 5% CO2 for 6 days. After incubation, the 96-well plate was centrifuged at 350× g for 5 min, and then 135 µL of the supernatant was discarded. 60 µL of CellTiter-Glo (Promega, Cat. No. G8461) was added to each well. The plate was incubated at room temperature for 15 min. Then the […] value was detected by a multi-label microplate tester.

MDA-MB-453 cells [2] = test: ADCC activity with PBMCs (LDH cytotoxicity detection); assay type: cell-based; settings: 5, 15 and 45 µg/mL, PBMC effector-to-target ratio 30:1, 4 h
Experimental: MDA-MB-453 cells (purchased from Cobioer Biosciences Co., Ltd., Cat. No. CBP60386) and PBMCs (provided by Zhongshan Blood Center) in the logarithmic growth phase were collected and centrifuged at 170× g for 5 min, and the supernatant was discarded. The cell pellet was resuspended in an assay medium (RPMI-1640 containing 1% FBS), centrifuged and washed twice, and the cells were counted. The cell density was adjusted with the assay medium, and the target cell suspension was seeded into a 96-well plate (containing about 3 × 10^4 target cells/well) at 50 µL/well. Then, serially diluted drugs (5 µg/mL, 15 µg/mL, and 45 µg/mL based on the working concentration of the antibody, respectively) were added, and the plate was pre-incubated at room temperature for 1 h. After the pre-incubation was completed, the PBMC suspension was added to the sample wells at 100 µL/well (each well contained about 9 × 10^5 PBMCs with an effector-to-target ratio of 30:1), mixed uniformly, and incubated in an incubator at 37 °C with 5% CO2 for 4 h. After the incubation was completed, the 96-well plate was taken out and centrifuged at 250× g for 5 min. 100 µL of culture supernatant was carefully pipetted and transferred to another 96-well plate. […] OD values at 490 nm and 650 nm were measured. […] The ADCC activity (expressed as ADCC%) was calculated based on the measured OD value of each group. […]

[3] = tested on: HCC827 human lung cancer cell xenograft tumor; test: In vivo efficacy in xenograft tumor model; set-up: species or system CB-17 SCID mice; settings: 3 mg/kg and 1.5 mg/kg, IV, weekly×3, compared to isotype control antibody
From the text: To determine the anti-tumor activity of the anti-HER3 antibody-drug conjugates in vivo, HCC827 human lung cancer cells (purchased from GuangZhou Jennio Biotech Co., Ltd.) were first inoculated subcutaneously into 5- to 8-week-old female CB-17 SCID mice (purchased from Guangdong Model Organisms Center, Inc.) on the upper posterior region of the right hind thigh. The day of grouping was defined as D0. The route of administration was intravenous injection (iv), once a week for a total of 3 doses. After the administration, the length and width of the tumors in each group were measured, and the tumor volume was calculated. Table 7: Dosing regimen of anti-HER3 antibody-drug conjugates for treatment of CB-17 SCID mouse model of HCC827 human lung cancer cell xenograft tumor

KA0013: anti-HER3 antibody-drug conjugate: patritumab conjugated via thioether bonds to Mc-AAA-Dxd (KA0012)
endocytic (internalization) activity (MDA-MB-453 cells [1]): could be endocytosed in MDA-MB-453
specific cell killing activity (NCI-H1781 cells): specifically kill NCI-H1781 cells
ADCC activity (MDA-MB-453 cells [2]): had ADCC activity
growth of mouse tumors (tumor volume) [3]: effectively inhibit the growth of mouse tumors
